Laboratory results as given in ChEMBL document CHEMBL3751819, “Navigating into the chemical space between MGCD0103 and SAHA: novel histone deacetylase inhibitors as a promising lead” (Medchemcomm, 2015).
Calls of active or inactive are those of the source. The rule behind the calls is not given here.

Assays:
HeLa [1] = assay: Induction of cell cycle arrest in human HeLa cells assessed as accumulation at G0/G1 phase at 1 uM after 24 hrs by propidium iodide staining based flow cytometry (reference value: 0.5 to 0.52%); format: functional
MCF7 = assay: Antiproliferative activity against human MCF7 cells assessed as reduction in cell viability after 48 hrs by MTT assay; format: functional, cell-based; details: MCF7, 48 h
HeLa [2] = assay: Induction of apoptosis in human HeLa cells assessed as necrotic cells at 1.25 uM after 48 hrs by annexin-V-FITC/propidium iodide staining based flow cytometry (reference value: 0.693%); format: functional
HeLa [3] = assay: Induction of cell cycle arrest in human HeLa cells assessed as accumulation at G2/M phase at 1 uM after 24 hrs by propidium iodide staining based flow cytometry (reference value: 0.35 to 0.37%); format: functional
HepG2 = assay: Antiproliferative activity against human HepG2 cells assessed as reduction in cell viability after 24 hrs by MTT assay; format: functional, cell-based; details: HepG2, 24 h
Histone deacetylase 3 = Histone deacetylase 3 (Homo sapiens, UniProt O15379); assay: Inhibition of HDAC3 (unknown origin) using Boc-Lys(acetyl)-AMC as substrate preincubated for 5 mins followed by substrate addition by fluorescence assay
Chain of Histone deacetylase 3 (O15379 whole entry): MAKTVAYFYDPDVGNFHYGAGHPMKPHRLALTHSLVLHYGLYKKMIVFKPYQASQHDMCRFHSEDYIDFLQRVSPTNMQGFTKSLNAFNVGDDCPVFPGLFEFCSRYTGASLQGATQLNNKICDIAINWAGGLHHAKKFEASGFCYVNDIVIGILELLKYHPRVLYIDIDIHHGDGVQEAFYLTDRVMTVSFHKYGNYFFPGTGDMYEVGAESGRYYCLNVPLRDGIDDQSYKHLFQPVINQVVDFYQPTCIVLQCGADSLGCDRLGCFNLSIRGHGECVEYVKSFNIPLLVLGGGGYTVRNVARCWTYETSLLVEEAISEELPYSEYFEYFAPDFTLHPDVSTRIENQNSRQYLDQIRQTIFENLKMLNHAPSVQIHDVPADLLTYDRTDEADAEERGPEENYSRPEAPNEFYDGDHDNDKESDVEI

A549 [4] = assay: Antiproliferative activity against human A549 cells assessed as reduction in cell viability after 48 hrs by MTT assay; format: functional, cell-based; details: A549, 48 h
[5] = target: T1, Protein deacetylase HDAC6 (Homo sapiens, UniProt Q9UBN7); assay: Inhibition of HDAC6 (unknown origin) using Boc-Lys(acetyl)-AMC as substrate preincubated for 5 mins followed by substrate addition by fluorescence assay
T1 sequence (Q9UBN7 whole entry): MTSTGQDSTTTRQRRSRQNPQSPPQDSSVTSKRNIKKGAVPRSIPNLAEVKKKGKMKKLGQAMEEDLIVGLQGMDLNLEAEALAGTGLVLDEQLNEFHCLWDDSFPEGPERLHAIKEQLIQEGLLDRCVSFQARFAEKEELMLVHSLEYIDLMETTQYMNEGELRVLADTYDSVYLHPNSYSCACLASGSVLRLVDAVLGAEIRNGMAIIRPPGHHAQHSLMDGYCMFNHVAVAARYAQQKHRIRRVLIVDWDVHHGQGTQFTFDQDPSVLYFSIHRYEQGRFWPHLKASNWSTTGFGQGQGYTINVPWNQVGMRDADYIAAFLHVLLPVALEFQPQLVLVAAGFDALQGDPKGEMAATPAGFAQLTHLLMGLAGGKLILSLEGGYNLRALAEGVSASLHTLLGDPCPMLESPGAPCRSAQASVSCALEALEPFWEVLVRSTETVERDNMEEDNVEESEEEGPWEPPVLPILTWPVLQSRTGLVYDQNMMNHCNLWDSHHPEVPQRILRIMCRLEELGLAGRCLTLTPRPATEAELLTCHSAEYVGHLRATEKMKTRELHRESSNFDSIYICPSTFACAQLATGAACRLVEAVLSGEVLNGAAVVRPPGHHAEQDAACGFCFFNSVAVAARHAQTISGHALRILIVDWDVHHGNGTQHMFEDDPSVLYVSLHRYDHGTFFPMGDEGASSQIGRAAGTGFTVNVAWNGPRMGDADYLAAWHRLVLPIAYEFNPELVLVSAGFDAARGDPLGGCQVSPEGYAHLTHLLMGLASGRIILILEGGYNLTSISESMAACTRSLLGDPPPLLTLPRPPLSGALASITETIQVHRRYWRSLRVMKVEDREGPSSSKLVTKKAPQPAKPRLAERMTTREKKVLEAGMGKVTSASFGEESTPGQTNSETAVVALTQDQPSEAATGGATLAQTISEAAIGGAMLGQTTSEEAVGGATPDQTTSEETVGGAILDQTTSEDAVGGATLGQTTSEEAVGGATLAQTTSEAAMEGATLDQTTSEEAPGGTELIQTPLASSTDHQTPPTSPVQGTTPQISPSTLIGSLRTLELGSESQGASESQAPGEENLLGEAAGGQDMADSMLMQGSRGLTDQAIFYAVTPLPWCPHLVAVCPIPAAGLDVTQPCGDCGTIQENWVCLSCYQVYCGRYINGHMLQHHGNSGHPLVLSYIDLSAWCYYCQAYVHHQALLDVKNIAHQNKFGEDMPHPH

HeLa [6] = assay: Induction of apoptosis in human HeLa cells assessed as necrotic cells at 5 uM after 48 hrs by annexin-V-FITC/propidium iodide staining based flow cytometry (reference value: 0.693%); format: functional
HeLa [7] = assay: Induction of cell cycle arrest in human HeLa cells assessed as accumulation at S phase at 2 uM after 24 hrs by propidium iodide staining based flow cytometry (reference value: 0.12 to 0.13%); format: functional
HeLa [8] = assay: Induction of cell cycle arrest in human HeLa cells assessed as accumulation at S phase at 1 uM after 24 hrs by propidium iodide staining based flow cytometry (reference value: 0.12 to 0.13%); format: functional
HeLa [9] = assay: Induction of cell cycle arrest in human HeLa cells assessed as accumulation at G2/M phase at 0.5 uM after 24 hrs by propidium iodide staining based flow cytometry (reference value: 0.35 to 0.37%); format: functional
HeLa [10] = assay: Induction of apoptosis in human HeLa cells assessed as late apoptotic cells at 1.25 uM after 48 hrs by annexin-V-FITC/propidium iodide staining based flow cytometry (reference value: 9.3%); format: functional
HeLa [11] = assay: Antiproliferative activity against human HeLa cells assessed as reduction in cell viability after 48 hrs by MTT assay; format: functional, cell-based
[12] = target: T2, Protein deacetylase HDAC6 (Homo sapiens) (UniProt Q9UBN7); assay: Inhibition of HDAC6 in human A549 cells assessed as increase in acetylated tubulin expression at 5 uM incubated for 12 hrs by DAPI staining based immunofluorescence microscopy; format: cell-based
T2 sequence (whole entry): T1 sequence (Q9UBN7 whole entry)

A549 [13] = assay: Antiproliferative activity against human A549 cells assessed as reduction in cell viability after 24 hrs by MTT assay; format: functional, cell-based; details: A549, 24 h

Row | IC50 (MCF7) [µM] | IC50 (HepG2) [µM] | IC50 (Histone deacetylase 3) [µM] | IC50 (A549 [4]) [µM] | IC50 [5] [µM] | IC50 (HeLa [11]) [µM] | inhibition [12] | IC50 (A549 [13]) [µM] | SMILES | Activity (HeLa [1]) [%] | Activity (HeLa [2]) [%] | Activity (HeLa [3]) [%] | Activity (HeLa [6]) [%] | Activity (HeLa [7]) [%] | Activity (HeLa [8]) [%] | Activity (HeLa [9]) [%] | Activity (HeLa [10]) [%]
1 | 16 | 22.9 | 0.102 | 11.9 | 0.078 | 7.23 | Active | – | O=C(NO)c1ccc(CNc2nccc(-c3cccnc3)n2)cc1 | 0.66 | 0.94 | 0.31 | 0.536 | 0.03 | 0.03 | 0.31 | 14.9
2 | 23 | 20.5 | 0.113 | 8.32 | 0.069 | 3.79 | Active | 98 | O=C(/C=C/c1ccc(CNc2nccc(-c3cccnc3)n2)cc1)NO | 0.64 | 0.924 | 0.29 | 0.858 | 0.03 | 0.05 | 0.3 | 12.2
